Results taken from BindingDB's records for doi:10.1021/acs.jmedchem.5b00865 (A.V. Bogatsky Physico-Chemical Institute of The National …, 2015).

Tests used:
[1] = molecular target: Integrin alpha-IIb/beta-3 (Homo sapiens); test: Antagonist activity against integrin alpha2bbeta3 closed form in human platelet rich plasma assessed as inhibition of ADP-induced platelet aggregation
[2] = molecular target: Integrin alpha-IIb/beta-3 (Homo sapiens); test: Antagonist activity against integrin alpha2bbeta3 open form in human platelet rich plasma assessed as inhibition of ADP-induced platelet aggregation

| Compound | IC50 [1] | IC50 [2] |
| --- | --- | --- |
| O=C(Nc1ccc2nc(N3CCNCC3)[nH]c(=O)c2c1)C1CCNCC1 | 100 nM |  |
| O=C(CCNC(=O)c1ccc2c(c1)CNCC2)NC[C@@H](NS(=O)(=O)c1ccccc1)C(=O)O |  | 25 nM |
| O=C(CCNC(=O)c1ccc2c(c1)CNCC2)NC[C@H](NS(=O)(=O)c1ccccc1)C(=O)O |  | 6.2 nM |
| CCCCS(=O)(=O)N[C@H](CNC(=O)CCNC(=O)c1ccc2c(c1)CNCC2)C(=O)O |  | 670 nM |
| CCCCS(=O)(=O)N[C@@H](CNC(=O)CCNC(=O)c1ccc2c(c1)CNCC2)C(=O)O |  | 320 nM |

Other lines, results leading:

| IC50 [1] | IC50 [2] | Compound |
| --- | --- | --- |
| 11 nM |  | NCCCC(=O)Nc1ccc2nc(N3CCNCC3)[nH]c(=O)c2c1 |
| 150 nM |  | NCCC(=O)Nc1ccc2nc(N3CCNCC3)[nH]c(=O)c2c1 |
